# Measurements from US9187518B2, “Antiangiogenic brassinosteroid compounds” (CONSEJO NACIONAL DE INVESTIGACIONES CIENTIFICAS Y TECNICAS …, priority 2011, dated 2015).
# Columns and labels:
# TNF-α = TNF-α secretion in epithelial cells (ELISA); assay type: cell-based, human
# IL-6 = IL-6 secretion in LPS-stimulated J774A.1 macrophages (ELISA); assay type: cell-based, murine; conditions: J774A.1 stimulated with 100 ng/ml LPS 8 h, 40 μM
# Procedure: J774A.1 cells grown in 24-well plates were incubated at 37° C. with 100 ng/ml of LPS, in duplicate. After 8 h, supernatants were harvested and murine IL-6 was quantified by commercial ELISA sets (BD OptEIA™, Becton Dickinson, USA) according to manufacturer instructions.
# [1] = system: J774A.1 cells stimulated with LPS; assay: Microarray gene expression in J774A.1 cells stimulated with LPS; assay type: cell-based, mouse; conditions: J774A.1, 100 ng/ml LPS, 40 μM, 6 h
# Procedure: HSV-1 infected cells and LPS stimulated cells were transcriptionally analyzed by using the whole human genome microarray and whole mouse genome microarray (Agilent Technologies, Santa Clara, Calif.), corresponding to 41,000 human or mice genes and transcripts.
# RNA was extracted with chloroform/isopropanol and purified from Trizol.
# cDNA synthesis, amplification and labeling of cRNA was performed, following the protocol of two colors of Agilent. Cyanine: 3-CTP and 5-CTP labeled cRNA was prepared from purified RNA (Two-Color Microarray-Based Gene Expression Analysis—Quick Amp Labeling, Agilent). Labeled cRNA was purified, quantified and the efficiency of labeling determined.
# After that, we proceeded with the hybridization, washing, assembling of the chips and scanning. The scanner software (Feature extraction) performed the scan quality control. The fluorescence intensity data obtained for each chip were analyzed using GeneSpring XG11 and Multi Experiment Viewer (MeV) programs.
# Labeled samples were placed in human and mouse hybridizing chips for HCLE and J774A.1 cells, respectively, during 17 h at 60° C. Successive washings were done with different washing, stabilization and drying solutions, and samples were scanned in the Agilent scanner G2565BA.
# We used the commercial software Agilent Feature Extraction for quality control of the scan. The software converts the scanned images produced in quantitative data for further analysis. It calculates the errors associated with hybridization, washing and scanning and detects outliers. On the one hand, it performs an analysis of the image to locate the grid on the chip and in it, the spots for each gene, and on the other hand, it makes an analysis of data, to define and measure information (fluorescence intensity) of each spot, for the analysis of gene expression.
# We identified differentially expressed genes with statistical significance. We used two programs, the XG11 and GeneSpring and the Multi Experiment Viewer (MeV).
# For this purpose, epithelial infected and inflammatory cells were processed to obtain RNA samples. HCLE cells infected with HSV-1 (m.o.i.=1) and J774A.1 cells stimulated with LPS (100 ng/ml) were treated or not with 40 μM of Compound 1. To extract total RNA, cells were harvested with Trizol at 6 h p.i. and at 6 h post-LPS induction. Eight replicates were obtained from HSV-1 infected and LPS-stimulated cells (four ‘control’ each) and other eight, from infected and LPS-stimulated cells treated with Compound 1 (four ‘treated’ each).
# NF-κB p65 subunit = assay: NF-κB p65 nuclear translocation in LPS-stimulated J774A.1 cells (IFI); assay type: cell-based, murine; conditions: J774A.1 induced with LPS 8 h, 40 μM (LPS only 79.4±1.2)
# Procedure: J774A.1 cells were grown on coverslips in 24-well plates and stimulated with 100 ng/ml LPS (Sigma) in RPMI without SFB, for 8 h at 37° C.
# After incubation, cells were fixed in methanol at −20° C. for 10 min, and processed for indirect immunofluorescence (IFI) with antibodies directed against the glycoprotein D (gD) of HSV-1 and/or the p65 subunit of NF-κB. After three washes with PBS, the coverslips were inverted on a drop of a 1/100 dilution of the first antibody, mouse monoclonal anti-gD and/or rabbit polyclonal anti p65 (Santa Cruz Biotechnology) and incubated for 30 min at 37° C., and then subjected to three additional washes with PBS. […]
# The images obtained with a 40× magnification were imported into NIH Image J 1.34s program (designed by Wayne Rasband, NIMH, Bethesda). […] We analyzed the total and nuclear fluorescence of the individual cells and a mean fluorescence density was obtained for each. To compare the distribution of fluorescence within the cell, the results were analyzed in a spreadsheet (Excel®). The total fluorescence intensity or nuclear density was calculated as the total or nuclear average per total or nuclear area, respectively. Then, we calculated the percentage of nuclear intensity or the percentage of nuclear intensity with respect to the total intensity for each cell. […]
# HUVECs = assay: Cell invasion assay (transwell, IL-6 stimulated); assay type: cell-based; conditions: Homo sapiens, HUVEC, 100 ng/ml IL-6, 24 h, read-out: inhibition of HUVECs invasion through the filter
# Procedure: HUVECs' invasion was evaluated using 24-well transwell cell culture chambers with 8 μm pore polycarbonate filter inserts. Cultured HUVECs were trypsinized and suspended in Medium 200 supplemented with LSGS at a concentration of 8×10^5 cells/ml. A total of 4×10^4 of cell suspension was applied to insert filters. We used 100 ng/ml of IL-6 to stimulate cell migration through the inserts. For that, we dispensed 600 μl of medium alone or with the stimulus in the lower chamber, which was then incubated for 24 h at 37° C. to allow cell migration. The insert was removed and migrated cells on the wells were fixed and stained with crystal violet. The wells were examined under a microscope. Migration was quantified by measuring the total stained cells in every well.
smiles,measurement,setting,value
"CC[C@@H](C(C)C)[C@H](O)[C@@H](O)[C@@H](C)[C@H]1CC[C@H]2[C@@H]3CCC4=CC(=O)CC[C@]4(C)[C@H]3CC[C@]12C [Compound 1, (22S,23S)-22,23-dihydroxystigmast-4-en-3-one]",TNF-α production,"TNF-α; HSV-1 infected IOBA-NHC cells, 40 μM, 24 h",did not affect TNF-α production
same,TNF-α release,"TNF-α; uninfected treated cells, compound alone",did not induce TNF-α release by itself
same,IL-6 level,IL-6,838 ± 4.2 pg/mL
same,Dusp2 gene expression,[1],restrained
same,expression of ATF3 and TLR4,[1],overexpressed
same,expression of IL-10 and Socs2,[1]; vs untreated control,increased
same,"expression of genes for IL-12, IL-23 and CXCL10",[1]; vs untreated stimulated,overexpression
same,percentage of cells positive for NF-κB translocation to the nucleus,NF-κB p65 subunit,87.9±0.2%
same,inhibition at 10 µM,HUVECs; 10 μM,18.4%
same,inhibition at 20 µM,HUVECs; 20 μM,26.1%
same,inhibition at 40 µM,HUVECs; 40 μM,67.5%
